Experimental data from US4144242A, “Process for the purification of clavulanic acid” (Glaxo Laboratories Limited, priority 1975, dated 1979).
Structures can show the parent of a compound that is named as a salt. Where two headings read alike, the source gives them in different places.

How the values were obtained:
[1] = pKa by potentiometric titration of the salt; format: physicochemical
β-lactamase enzymes = assay: Inhibition of β-lactamase enzymes; format: biochemical, gram-positive and gram-negative bacteria
[2] = Stability in aqueous solution / on storage; format: physicochemical
[3] = system: β-lactamases produced by gram-positive organisms and by gram-negative organisms in classes I-V; assay: Stability to the action of β-lactamases; format: biochemical; details: β-lactamases of S. aureus, B. cereus and gram-negative classes I-V (Richmond and Sykes)
[4] = system: gram-negative and gram-positive microorganisms; assay: Antibacterial activity; format: cell-based; details: range of gram-negative and gram-positive microorganisms
[5] = Uptake of atmospheric water (hygroscopicity); format: physicochemical
Procedure: The solid was hygroscopic. It was ground in a pestle and mortar and allowed to take up atmospheric water at 18° C. After about 22% (w/w) of water was taken up, an equilibrium was reached.

[6] = Solubility of lithium clavulanate in aqueous lithium chloride; format: physicochemical; details: about 20° C., read-out: Solubility in mz/ml of lithium clavulanate (approximate)
Procedure: The eluate will normally contain the lithium salt, e.g. lithium chloride, at a concentration in the range 0.5 to 2.5M whereas, as indicated above, the salting out effect is most efficient at concentrations in the range 5M to 10 M. It is therefore preferred to concentrate the eluate, for example by evaporation in vacuo, e.g. by a factor of about 5. The solubility of lithium clavulanate at about 20° C. in various concentrations of aqueous lithium chloride is given in the following table: […]

O=C(O)[C@H]1/C(=C/CO)O[C@@H]2CC(=O)N21 [calcium salt]
pKa ([1]; read-out: pKa value of the corresponding acid): ~2.4

O=C(O)[C@H]1/C(=C/CO)O[C@@H]2CC(=O)N21 [clavulanic acid, (2R, 5R, Z)-3-(2-hydroxyethylidene)-7-oxo-4-oxa-1-azabicyclo[3,2,0]heptane-2-carboxylic acid]
inhibition of class I β-lactamase enzymes (β-lactamase enzymes; a number of class I enzymes (e.g. Bacteroides fragilis, Proteus vulgaris, Proteus morganii, Proteus rettgeri, Enterobacter cloacae, Citrobacter freundii, Providencia species, Hafnia alvei)): inhibited | ability to inhibit β-lactamase enzymes (β-lactamase enzymes; enzymes of gram-positive organisms (S. aureus, B. cereus) and classes II-V from gram-negative bacteria): possess the ability to inhibit β-lactamase enzymes | stability of the free acid ([2]; after its formation): rather unstable | stability in aqueous solution ([2]; aqueous solution, dependence on pH): rather unstable in aqueous solution outside the pH range 5.5 to 8 | stability to the action of β-lactamases [3]: stable | antibacterial activity [4]: have antibacterial activity

O=C(O)[C@H]1/C(=C/CO)O[C@@H]2CC(=O)N21 [sodium salt, sodium clavulanate]
hygroscopicity ([5]; crystalline solid): hygroscopic | water taken up at equilibrium ([5]; ground solid, atmospheric water at 18° C.): about 22 % (w/w)

O=C(O)[C@H]1/C(=C/CO)O[C@@H]2CC(=O)N21 [lithium clavulanate]
pKa value of the corresponding acid ([1]; listed as lithium salt): about 2.3 | solubility ([6]; 2.5 M aqueous LiCl): 23500 µg/mL | solubility ([6]; 3.75 M aqueous LiCl): 10200 µg/mL | solubility ([6]; 5.0 M aqueous LiCl): 4100 µg/mL | solubility ([6]; 6.25 M aqueous LiCl): 1800 µg/mL | solubility ([6]; 7.5 M aqueous LiCl): 800 µg/mL
